Reference: patent US9724354B2, “Combination of catalytic mTORC1/2 inhibitors and selective inhibitors of Aurora A kinase” (Millennium Pharmaceuticals, Inc., priority 2013, dated 2017)

Assays:
[1] = test system: PHTX-147B breast xenograft; assay: In vivo tumor efficacy, PHTX-147B breast xenograft model; parameters: species or system female Balb/c nude mice; conditions: PO
Source text: (§1) The PHTX-147B breast xenograft model was established from a patient-derived tumor collected during surgery from a person with ductal carcinoma classified as triple negative breast cancer (ER−/PR−/Her2−) by IHC. PHTX-147B tumor fragments (approximately 2×2×3 mm^3) at passage 7 are implanted into the subcutaneous space in the right dorsal flank of female Balb/c nude mice (age 4-6 weeks, Shanghai SINO-British SIPPR/BK Lab Animal Ltd.).
(§2) MLN8237 was formulated in 10% HPbCD+1% NaHCO3 and administered by oral injection (1 cc syringe, 20-22 gauge, oral gavages needle) on QD schedule at 3 mg/kg and 20 mg/kg for 21 days. MLN8237 as used in the experimental section refers to sodium 4-{[9-chloro-7-(2-fluoro-6-methoxyphenyl)-5H-pyrimido[5,4-d][2]benzazepin-2-yl]amino}-2-methoxybenzoate monohydrate and the amount referenced is the amount of alisertib dosed. MLN8237 is dosed 24 hours prior to MLN0128 in all three models.
(§3) MLN0128 is formulated in 100% PEG400 and administered by oral injection (1 cc syringe, 20-22 gauge, oral gavages needle) on QD schedule at 0.3 mg/kg for 21 days. 1 mg/kg QD×3/weeks for 3 weeks. MLN0128 is dosed 24 hours after MLN8237 dosing.
(§4) Tumors are measured twice weekly using a vernier caliper. Tumor volumes are calculated using standard procedures (0.5×(length×width^2)). When the tumors reached a volume of approximately 200 mm^3 (PHTX-14B, PHTX-147B) or 167 mm^3 (SUM-149PT), mice are randomized into groups of 8 as described in the tables below, and dosed with vehicle, MLN8237 or MLN0128 or the combination of MLN8237 with MLN0128, at various doses as described below in Tables 8a-10a. Tumor size and body weight are measured approximately twice a week for the duration of the study. Mice are euthanized when their tumor volume reached 10% of their body weight, or when the average tumor volume of a treatment or control group reached approximately 2000 mm^3. Tumor growth continued to be monitored after the dosing period in some studies. Average tumor volume is reported as a function of time for selected groups of selected studies in FIGS. 3, 4 and 5.
(§5) Measurements from day 0 to 21 are analyzed as specified in Tables 8a-10a. All tumor volumes have a value of 1 added to them before log10 transformation. For each animal, the log tumor volume at day 0 is subtracted from the log tumor volume on the subsequent days. This difference vs. time is used to calculate an area under the curve (AUC) for each animal using the trapezoid rule. In instances when an animal in a treatment group is removed early from the study, the last observed tumor value is carried forward through all subsequent time points. The synergy score for the combination of agents A and B is defined as: 100*(mean(AUCAB)−mean(AUCA)−mean(AUCB)+mean(AUCctl))/mean(AUCctl): where AUCAB, AUCA, AUCB, and AUCctl are the AUC values for animals in the combination group, the A group, the B group, and the control group, respectively. The standard error of the synergy score is computed based on the variation in the AUC values among the animals. […] If the P-value is above 0.05, then the combination is considered to be additive. If the P-value is below 0.05, and the synergy score is less than zero, then the combination is considered to be synergistic. […] Otherwise, the combination is classified as antagonistic.

[2] = test system: SUM-149PT breast xenograft; assay: In vivo tumor efficacy, SUM-149PT breast xenograft model; parameters: species or system Balb/c Nude mice; conditions: PO
Experimental: SUM-149PT (5×10^6) is a tumor cell line grown in Ham's F12 (BD Biosciences) media with 5% FBS, supplemented with 5 μg/ml insulin and 1 μg/ml hydrocortisone media mixed with an equal volume of Matrigel (BD Biosciences). Cell suspension at passage 84 was aseptically injected into the subcutaneous space in the right dorsal flank of Balb/c Nude mice (age 8 weeks, Shanghai SINO-British SIPPR/BK Lab Animal Ltd.) using a 25-gauge needle.
as §2, §3, §4, §5

[3] = test system: PHTX-14B breast xenograft; assay: In vivo tumor efficacy, PHTX-14B breast xenograft model; parameters: species or system female Balb/c nude mice; conditions: for Average tumor volume at day 21: PO
Source text: as §1, with “PHTX-14B” for “PHTX-147B”, “Ltd) using a 13-gauge trocar tumor implantation needle.” for “Ltd.).”
as §2, §3, §4, §5

[4] = MLN0128 alone at 0.3 mg/kg, QD×21
[5] = MLN8237 alone at 3 mg/kg, QD×21
[6] = MLN8237 alone at 20 mg/kg, QD×21

CC(C)n1nc(-c2ccc3oc(N)nc3c2)c2c(N)ncnc21 [MLN0128, 3-(2-amino-1,3-benzoxazol-5-yl)-1-(propan-2-yl)-1H-pyrazolo [3,4-d] pyrimidin-4-amine]
Average tumor volume at day 21 ([1]; 0.3 mg/kg MLN0128, QD): 1354.1 mm^3 | Average tumor volume at day 21 ([1]; 1 mg/kg MLN0128, QD × 3/week): 974.8 mm^3 | effect on growth of PHTX-147B xenografts [1, 4]: responded moderately | effect on growth of PHTX-147B xenografts ([1]; MLN0128 alone at 1.0 mg/kg, QD×3/wk×3): significantly delayed the growth | Average tumor volume at day 21 ([2]; 0.3 mg/kg MLN0128, QD): 524.5 mm^3 | Average tumor volume at day 21 ([2]; 1 mg/kg MLN0128, QD × 3/week): 696.8 mm^3 | effect on growth of SUM149PT xenografts [2, 4]: significantly delayed the growth | effect on growth of SUM149PT xenografts ([2]; MLN0128 alone at 1.0 mg/kg, QD×3/wk×3 weeks): only responded lightly | Average tumor volume at day 21 ([3]; 0.3 mg/kg MLN0128, QD): 539.1 mm^3 | Average tumor volume at day 21 ([3]; 1 mg/kg MLN0128, QD × 3/week): 475.6 mm^3 | effect on growth of PHTX-14B xenografts ([3]; MLN0128 at 0.3 mg/kg alone, QD×21): significantly delayed growth | effect on growth of PHTX-14B xenografts ([3]; MLN0128 at 1.0 mg/kg alone): significantly delayed growth

COc1cc(Nc2ncc3c(n2)-c2ccc(Cl)cc2C(c2c(F)cccc2OC)=NC3)ccc1C(=O)[O-].O.[Na+] [MLN8237, sodium 4-{[9-chloro-7-(2-fluoro-6-methoxyphenyl)-5H-pyrimido[5,4-d][2]benzazepin-2-yl]amino}-2-methoxybenzoate monohydrate]
Average tumor volume at day 21 ([1]; 3 mg/kg MLN8237, QD): 1951.9 mm^3 | Average tumor volume at day 21 ([1]; 20 mg/kg MLN8237, QD): 1694.9 mm^3 | effect on PHTX-147B xenograft growth [1, 5]: only slight or no effect | effect on PHTX-147B xenograft growth [1, 6]: only slight or no effect | Average tumor volume at day 21 ([2]; 3 mg/kg MLN8237, QD): 613.4 mm^3 | Average tumor volume at day 21 ([2]; 20 mg/kg MLN8237, QD): 451.6 mm^3 | effect on growth of SUM149PT xenografts [2, 5]: significantly delayed the growth | effect on growth of SUM149PT xenografts [2, 6]: significantly delayed the growth | Average tumor volume at day 21 ([3]; 3 mg/kg MLN8237, QD): 795.1 mm^3 | Average tumor volume at day 21 ([3]; 20 mg/kg MLN8237, QD): 533.9 mm^3 | antitumor activity in PHTX-14B xenografts ([3]; MLN8237 at 3 mg/kg alone, QD×21): limited and not significant | effect on growth of PHTX-14B xenografts ([3]; MLN8237 at 20 mg/kg alone, QD×21): significantly delayed growth
